Data on 23 molecules can be found in patent publication US5506354A, “Imidazolylpiperazinyl steroids” (The Upjohn Company, priority 1992, dated 1996).

One assay deals with angiogenesis. Kind of assay: Chick embryo assay of Folkman (inhibition of angiogenesis / tumor growth). Format: in vivo. The following applies: 50 μg/10 μl in the presence of heparin. As to the method: According to this procedure compounds which are considered to be "active" (i.e. antiangiogenic) give an avascular zone of 4 mm or greater in some embryos when tested at 50 μg/10 μl in the presence of 50 μg/10μ of heparin.

The subject of a further assay is arachidonic acid. In words: Arachidonic Acid Antagonism Assay (AAAA), LD50 of sodium arachidonate. Format: in vivo, Charles River male CF-1 mice. The following applies: for arachidonic acid antagonism (activity in words): test compound IV 15 min before sodium arachidonate, LD50 outside 95% confidence interval of control. As to the method: Since these metabolites contribute to the pathological problems associated with stroke, spinal trauma and head injury, compounds which antagonize arachidonic acid are useful in treating stroke, spinal trauma and head injury.
While not necessary to determine arachidonic acid antagonism, the above assay has been modified as follows: Charles River male CF-1 mice weighing 18-22 g are treated IV with the test compound dissolved in 1.0% Tween-80 and 0.1% hydrochloric acid in distilled water, 0.2 ml total volume. Fifteen minutes later sodium arachidonate (90% pure) in physiological (normal) saline is injected into the tail vein. The LD50 is measured using the Spearman-Karber method with a log dose interval of 0.05 (N=6). Compounds which elevate the LD50 outside of the 95% confidence interval of the control LD50 are considered to be "active".

Structures can show the parent of a compound that is named as a salt.

Consider `C[C@]12CCC(=O)C=C1CC[C@@H]1C2=CC[C@@]2(C)[C@H]1CC[C@]2(O)C(=O)CN1CCN(C(=O)c2ccco2)CC1` [Example 6B, 17α-Hydroxy-21-[4-(2-furonylcarbonyl)-1-piperazinyl]pregna-4,9(11)-diene-3,20-dione], for which the “inhibition of angiogenesis (activity in words)” value (shortened to “inhibition of angiogenesis”) in the assay on angiogenesis is on record as “demonstrate inhibition of angiogenesis”. On to `CCN(CC)c1cc(N2CCN(CC(=O)[C@@]3(O)CC[C@H]4[C@@H]5CCC6=CC(=O)CC[C@]6(C)C5=CC[C@@]43C)CC2)nc(N(CC)CC)n1` [Example 16, 17α-Hydroxy-21-[4-[2,6-bis(diethylamino)pyrimidinyl]-1-piperazinyl]pregna-4,9(11)-diene-3,20-dione dihydrochloride hydrate], for which the “% of Embryos with 4 mm or Greater Avascular Zone” value (from here on “% of Embryos”) in the assay with angiogenesis is listed as 91%. `CN1CCN(c2cc(N3CCN(CC(=O)[C@@]4(O)CC[C@H]5[C@@H]6CCC7=CC(=O)CC[C@]7(C)C6=CC[C@@]54C)CC3)nc(N3CCN(C)CC3)n2)CC1` [Example 19, 17α-Hydroxy-21-[4-[2,6-bis(4-methyl-1-piperazinyl)A-pyrimidinyl]-1-piperazinyl]-pregna-4,9(11)-diene-3,20-dione methanesulfonate hydrate]: the “arachidonic acid antagonism (activity in words)” value (“arachidonic acid antagonism” below) in the assay with arachidonic acid is given as “demonstrate arachidonic acid antagonism”.

For the molecule `C[C@]12CCC(=O)C=C1CC[C@@H]1[C@@H]2C(=O)C[C@@]2(C)[C@H]1CC[C@]2(O)C(=O)CN1CCN(c2ccccn2)CC1` [Example 20], in the assay on angiogenesis, the “% of Embryos” value is 72% and the “inhibition of angiogenesis” value was “demonstrate inhibition of angiogenesis”.

As to `COc1cccc(N2CCN(CC(=O)[C@@]3(O)CC[C@H]4[C@@H]5CCC6=CC(=O)CC[C@]6(C)C5=CC[C@@]43C)CC2)n1.CS(=O)(=O)O` [Example 22, 17α-hydroxy-21-[4-(6-methoxy-2-pyridinyl)-1-piperazinyl]pregna-4,9(11)-diene-3,20-dione monomethanesulfonate], in the assay with arachidonic acid, the “arachidonic acid antagonism” value is reported as “demonstrate arachidonic acid antagonism”. Turning to `C[C@]12C=CC(=O)C=C1CC[C@@H]1[C@@H]2[C@@H](O)C[C@@]2(C)[C@H]1CC[C@]2(O)C(=O)CN1CCN(c2ccccn2)CC1` [Example 25, 11.uparw.,17α-dihydroxy-21-[4-(2-pyridinyl)-1-piperazinyl]pregna-1,4-diene-3,20-dione dihydrochloride], in the assay on arachidonic acid, the “arachidonic acid antagonism” value is “demonstrate arachidonic acid antagonism”.

As to `CC(C)(C)CC(=O)O[C@@H]1C[C@@]2(C)[C@@H](CC[C@]2(O)C(=O)CN2CCN(c3ccccn3)CC2)[C@@H]2CCC3=CC(=O)CC[C@]3(C)[C@H]21` [Example 28, 11α,17α-Dihydroxy-21-[4-(2-pyridinyl)-1-piperazinyl]pregn-4-ene-3,20-dione 11-(3,3-dimethyl-1-butyratedihydrochloride], the “% of Embryos” value with angiogenesis was 73%. Take `C[C@]12CCC(=O)C=C1CC[C@@H]1[C@@H]2[C@H](O)C[C@@]2(C)[C@H]1CC[C@]2(O)C(=O)CN1CCN(c2ccc(F)cc2)CC1` [Example 29, 21-[4-(4-fluorophenyl)-1-piperazinyl]-11α,17α-dihydroxypregn-4-ene-3,20-dione dihydrochloride]: the “arachidonic acid antagonism” value in the assay with arachidonic acid is listed as “demonstrate arachidonic acid antagonism”. Turning to `COc1ccc(N2CCN(CC(=O)[C@@]3(O)CC[C@H]4[C@@H]5CCC6=CC(=O)CC[C@]6(C)[C@H]5[C@H](OC(=O)CC(C)(C)C)C[C@@]43C)CC2)cc1` [Example 32, 11α,17α-dihydroxy-21-[4-(4-methoxyphenyl)-1-piperazinyl]pregn-4-ene-3,20-dione 11-(3,3-dimethyl-1-butyrate) dihydrochloride], the “inhibition of angiogenesis” value in the assay with angiogenesis is given as “demonstrate inhibition of angiogenesis”. For `COc1ccc(N2CCN(CC(=O)[C@@]3(O)CC[C@H]4[C@@H]5C[C@H](C)C6=CC(=O)C=C[C@]6(C)[C@H]5[C@@H](O)C[C@@]43C)CC2)cc1` [Example 33, 11β,17α-dihydroxy-21-[4-(4-methoxyphenyl)-1-piperazinyl]-6α-methylpregna-1,4-diene-3,20-dione dihydrochloride], the “inhibition of angiogenesis” value with angiogenesis was “demonstrate inhibition of angiogenesis”. As for `COc1ccc(CCNCC(=O)[C@@]2(O)CC[C@H]3[C@@H]4C[C@H](C)C5=CC(=O)C=C[C@]5(C)[C@H]4[C@@H](O)C[C@@]32C)cc1OC` [Example 34, 11β,17α-dihydroxy-21-[[2-(3,4-dimethoxy-phenyl)ethyl]amino]-6α-methylpregna-1,4-diene-3,20-dione hydrochloride], the “inhibition of angiogenesis” value in the assay with angiogenesis is listed as “demonstrate inhibition of angiogenesis”. Regarding `C[C@]12C[C@@H](O)[C@H]3[C@@H](CCC4=CC(=O)CC[C@@]43C)[C@@H]1CC[C@@H]2C(=O)CN1CCN(c2ccccn2)CC1.Cl.Cl` [Example 36, 11α-hydroxy-21-[4-(2-pyridinyl)-1-piperazinyl]-pregn-4-ene-3,20-dione dihydrochloride], in the assay on angiogenesis, the “inhibition of angiogenesis” value is “demonstrate inhibition of angiogenesis”.

As for `C[C@H]1C[C@H]2[C@@H]3CC[C@H]4CC(=O)CC[C@]4(C)C3=CC[C@]2(C)[C@@]1(O)C(=O)CN1CCN(c2ccccn2)CC1.Cl.Cl.O` [Example 44, 17α-hydroxy-16β-methyl-21-[4-(2-pyridinyl)-1-piperazinyl]-5α-pregn-9(11)-ene-3,20-dione dihydrochloride hydrate], the “% of Embryos” value in the assay with angiogenesis is reported as 75%. On to `C[C@]12CC(=O)[C@H]3[C@@H](CCC4=CC(=O)CC[C@@]43C)[C@@H]1CC[C@@H]2C(=O)CN1CCN(c2ccccn2)CC1.Cl.O` [Example 45, 21-[4-(2-pyridinyl)-1-piperazinyl]pregn-4-ene-3,11,20-trione hydrochloride hydrate], for which, in the assay with arachidonic acid, the “arachidonic acid antagonism” value is listed as “demonstrate arachidonic acid antagonism”. On to `COc1ccc(CCN(CC(=O)[C@@]2(O)CC[C@H]3[C@@H]4CCC5=CC(=O)CC[C@]5(C)C4=CC[C@@]32C)Cc2ccc(N(C)C)cc2)cc1OC` [Example 51, 17α-hydroxy-21-[[2-(3,4-dimethoxyphenyl)ethyl]-4-(dimethylamino)-phenyl]methyl]amino]pregna-4,9(11)-3,20-dione hydrochloride], for which the “arachidonic acid antagonism” value in the assay on arachidonic acid is recorded as “demonstrate arachidonic acid antagonism”.

`CCN(CC)c1cc(N2CCN(CC(=O)[C@@]3(O)CC[C@H]4[C@@H]5CCC6=CC(=O)CC[C@]6(C)[C@H]5CC[C@@]43C)CC2)nc(N(CC)CC)n1` [Example 53, 21-[4-[2,6-bis(diethylamino)4-pyrimidinyl]-1-piperazinyl]-17α-hydroxypregn-4-ene-3,20-dione]: in the assay with arachidonic acid, the “arachidonic acid antagonism” value is given as “demonstrate arachidonic acid antagonism”.

Consider `C[C@]12CCC(=O)C=C1CC[C@@H]1C2=CC[C@@]2(C)[C@H]1CC[C@]2(O)C(=O)CN1CCN(Cc2ccccn2)CC1` [Example 54, 17α-hydroxy-21-[4-(2-pyridinylmethyl)-1-piperazinyl]-pregna-4,9(11)-diene-3,20-dione (E)-2-butenedioate 1:1 salt], for which the “arachidonic acid antagonism” value in the assay on arachidonic acid was “demonstrate arachidonic acid antagonism”. As for `CCN(CC)c1cc(N2CCN(C(=O)[C@@]3(O)CC[C@H]4[C@@H]5CCC6=CC(=O)CC[C@]6(C)[C@H]5CC[C@@]43C)CC2)nc(N(CC)CC)n1` [Example 57], the “% of Control LD50 100 mg/kg” value with arachidonic acid (100 mg/kg, test compound IV) was 124%. For the same molecule, the “arachidonic acid antagonism” value with arachidonic acid is reported as “demonstrate arachidonic acid antagonism”. For `C=CCNc1nc(NCC=C)nc(N2CCN(CC(=O)[C@@]3(O)CC[C@H]4[C@@H]5CCC6=CC(=O)CC[C@]6(C)C5=CC[C@@]43C)CC2)n1.Cl.Cl.O` [Example 60, 17α-hydroxy-21-[4-[4,6-bis(2-propenylamino)-1,3,5-triazin-2-yl]-1-piperazinyl]pregna-4,9(11)-diene-3,20-dione dihydrochloride hydrate], in the assay with arachidonic acid, the “arachidonic acid antagonism” value is recorded as “demonstrate arachidonic acid antagonism”. In the case of `CCN(CC)c1cc(N2CCN(CC(=O)[C@@]3(O)CC[C@H]4[C@@H]5C[C@H](C)C6=CC(=O)C=C[C@]6(C)C5=CC[C@@]43C)CC2)nc(N(CC)CC)n1` [Example 63, 21-[4-[2,6-bis(diethylamino)-4-pyrimidinyl]-1-piperaz-inyl]-17α-hydroxy-6α-methylpregna-1,4,9(11)-triene-3,20-dione (E)-2-butenedioate (1:1) salt], in the assay on angiogenesis, the “inhibition of angiogenesis” value was “demonstrate inhibition of angiogenesis”.

On to `C[C@]12CCC(=O)C=C1CC[C@@H]1C2=CC[C@@]2(C)[C@H]1CC[C@]2(O)C(=O)CN1CCN(c2cc(N3CCCC3)nc(N3CCCC3)n2)CC1` [Example 64, 17α-hydroxy-21-[4-[2,6-bis(1-pyrrolidinyl)-4-pyrimidinyl]-1-piperazinyl]-pregna-4,9(11)-diene-3,20-dione (E)-2-butenedioate (1:1) salt], for which, in the assay on angiogenesis, the “inhibition of angiogenesis” value is given as “demonstrate inhibition of angiogenesis”. Turning to `C[C@]12C=CC(=O)C=C1CC[C@@H]1C2=CC[C@@]2(C)[C@H]1CC[C@]2(O)C(=O)CN1CCN(c2cc(N3CCCC3)nc(N3CCCC3)n2)CC1.Cl.Cl.O` [Example 74, 17α-hydroxy-21-[4-[2,6-di-(1-pyrrolidinyl)-4-pyrimidinyl]-1-piperazinyl] pregna-1,4,9(11)-triene-3,20-dione dihydrochloride hydrate], the “arachidonic acid antagonism” value in the assay on arachidonic acid is “demonstrate arachidonic acid antagonism”. For the molecule `C[C@]12CC[C@@H](O)C[C@H]1CC[C@@H]1[C@@H]2C(=O)C[C@@]2(C)[C@H]1CC[C@]2(O)C(=O)CN1CCN(c2ccccn2)CC1` [Example 99, 3α,17α-dihydroxy-21-[4-(2-pyridinyl)-1-piperazinyl]-5β-pregnane-11,20-dione dihydrochloride hydrate], the “inhibition of angiogenesis” value in the assay on angiogenesis is given as “demonstrate inhibition of angiogenesis”.
